Assay results as given in patent publication US10508085B2, “Compounds and methods for IDO and TDO modulation, and indications therefor” (Plexxikon Inc., priority 2016, dated 2019).
Where two headings read alike, the source gives them in different places.

Legend:
[1] = biological target: T1, Human Indoleamine 2,3-dioxygenase (IDO) (Homo sapiens, UniProt P14902); assay: Human IDO enzymatic assay (kynurenine level); assay type: biochemical; conditions: 6 nM IDO, 10 μM L-Trp; geometric mean; read-out: IDO1 GMean: IC50 (μM) (Biochemical Assay)
T1 construct: His tag (N); made in house; host or cells: E. coli
T1 sequence (P14902 whole entry): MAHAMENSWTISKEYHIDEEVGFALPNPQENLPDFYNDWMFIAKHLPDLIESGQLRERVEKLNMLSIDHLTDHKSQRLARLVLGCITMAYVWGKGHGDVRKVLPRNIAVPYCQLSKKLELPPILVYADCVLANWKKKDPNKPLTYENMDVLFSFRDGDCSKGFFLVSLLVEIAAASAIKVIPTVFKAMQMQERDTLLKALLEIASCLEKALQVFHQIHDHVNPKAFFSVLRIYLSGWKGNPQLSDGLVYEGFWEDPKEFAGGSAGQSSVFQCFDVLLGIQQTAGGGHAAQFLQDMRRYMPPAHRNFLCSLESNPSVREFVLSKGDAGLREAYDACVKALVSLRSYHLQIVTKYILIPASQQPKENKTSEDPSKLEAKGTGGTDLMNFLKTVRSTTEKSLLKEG
Summary of the method: (§1)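 IDO conditions: 6 nM His-IDO, 10 μM L-Trp, 5 μM methylene blue, 20 min, RT. TDO conditions: 1 nM His-TDO, 350 μM L-Trp, 0.4 μM methylene blue, 70 min, RT. Both used pH 6.5 phosphate plus ascorbate/catalase, TCA stop at 50° C, kynurenine readout, nonlinear-regression IC50.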

[2] = biological target: T2, Human Tryptophan 2,3-dioxygenase (TDO) (Homo sapiens, UniProt P48775); assay: Human TDO enzymatic assay (kynurenine level); assay type: biochemical; conditions: 1 nM TDO, 350 μM L-Trp; geometric mean; read-out: TDO GMean: IC50 (μM) (Biochemical Assay)
T2 construct: His tag (N); made in house; host or cells: E. coli
T2 sequence (P48775 whole entry): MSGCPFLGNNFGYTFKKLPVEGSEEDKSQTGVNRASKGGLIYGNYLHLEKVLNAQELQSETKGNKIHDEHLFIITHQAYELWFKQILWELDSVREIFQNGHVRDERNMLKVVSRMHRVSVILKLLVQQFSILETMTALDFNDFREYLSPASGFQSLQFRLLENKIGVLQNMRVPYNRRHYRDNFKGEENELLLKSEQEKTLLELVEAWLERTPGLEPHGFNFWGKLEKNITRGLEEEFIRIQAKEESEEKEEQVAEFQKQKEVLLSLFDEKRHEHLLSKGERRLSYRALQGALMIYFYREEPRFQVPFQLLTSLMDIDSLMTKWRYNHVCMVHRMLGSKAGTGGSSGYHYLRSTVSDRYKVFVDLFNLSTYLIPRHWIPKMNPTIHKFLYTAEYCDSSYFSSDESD
Summary of the method: as §1

[3] = biological target: T3, human IDO (IDO1-expressing HEK293 cells) (Homo sapiens, UniProt P14902); assay: Cell based kynurenine assay, IDO1-expressing HEK293 cell clones; conditions: IDO1-expressing HEK293 cells, geometric mean, read-out: HEK293 IDO1 Kynurenine GMean IC50 (μM) (Cellular Assay)
T3 construct: expressed in transfected cells
T3 sequence (P14902 whole entry): as the sequence (P14902 whole entry) above
Summary of the method: (§2)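 Steps: seed IDO1- or TDO-expressing HEK293 cells at 2.5×10^4 per well; add compound dilutions; incubate 24 h; transfer supernatant and determine kynurenine; derive IC50 via nonlinear regression of percent inhibition.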

[4] = biological target: T4, human TDO (TDO-expressing HEK293 cells) (Homo sapiens, UniProt P48775); assay: Cell based kynurenine assay, TDO-expressing HEK293 cell clones; conditions: TDO-expressing HEK293 cells, geometric mean, read-out: HEK293 TDO Kynurenine GMean IC50 (μM) (Cellular Assay)
T4 construct: expressed in transfected cells
T4 sequence (P48775 whole entry): as the sequence (P48775 whole entry) above
Summary of the method: as §2

SMILES	IC50 [1]	IC50 [2]	IC50 ([3]; 24 hours incubation)	IC50 ([4]; 24 hours incubation)	IC50 ([3]; 24 hours)	IC50 ([4]; 24 hours)
OC1(c2cc(C(F)(F)F)cc3cn[nH]c23)CC2(CCC2)C1 [Compound P-0031, 2-(5-(trifluoromethyl)-1H-indazol-7-yl)spiro[3.3]heptan-2-ol]	0.0001 to 10 µM	0.0001 to 10 µM	> 10 µM	> 10 µM		
NC(=O)N1CCC2(CC1)CC(O)(c1cc(Cl)cc3cn[nH]c13)C2 [Compound P-0346, 2-(5-chloro-1H-indazol-7-yl)-2-hydroxy-7-azaspiro[3.5] nonane-7-carboxamide]	0.0001 to 10 µM	0.0001 to 10 µM	0.0001 to 10 µM	0.0001 to 10 µM		
CC1(C)CN(c2cc(Cl)cc3cn[nH]c23)CCN1S(C)(=O)=O [Compound P-0089, 5-chloro-7-(3,3-dimethyl-4-(methylsulfonyl)piperazin-1-yl)-1H-indazole]	0.0001 to 10 µM	0.0001 to 10 µM	0.0001 to 10 µM	0.0001 to 10 µM		
Cc1ccc(NC(=O)N2CCC(C(C)(C)C(O)c3cc(Cl)cc4cn[nH]c34)CC2)cc1 (stereo not shown) [Compound P-0397, 4-(1-(5-chloro-1H-indazol-7-yl)-1-hydroxy-2-methylpropan-2-yl)-N-(p-tolyl) piperidine-1-carboxamide]	0.0001 to 10 µM	0.0001 to 10 µM	0.0001 to 10 µM	0.0001 to 10 µM		
CC(C)(N)CC(O)c1cc(Cl)cc2cn[nH]c12 (stereo not shown) [Compound P-0233, 3-amino-1-(5-chloro-1H-indazol-7-yl)-3-methylbutan-1-ol]	10 to 100 µM	10 to 100 µM	> 10 µM	> 10 µM		
O=C(C1CCC1)N1CCC(C(F)(F)C(O)c2cc(Cl)cc3cn[nH]c23)CC1 (stereo not shown) [Compound P-0349, (4-(2-(5-chloro-1H-indazol-7-yl)-1,1-difluoro-2-hydroxyethyl)piperidin-1-yl)(cyclobutyl) methanone]	0.0001 to 10 µM	0.0001 to 10 µM	0.0001 to 10 µM	0.0001 to 10 µM		
COc1cccc(CC(=O)N2CCC(C(F)(F)C(O)c3cc(Cl)cc4cn[nH]c34)CC2)c1 (stereo not shown) [Compound P-0522, 1-(4-(2-(5-chloro-1H-indazol-7-yl)-1,1-difluoro-2-hydroxyethyl)piperidin-1-yl)-2-(3-methoxyphenyl) ethan-1-one]	0.0001 to 10 µM	0.0001 to 10 µM			0.0001 to 10 µM	0.0001 to 10 µM
CC(C)(C1CCN(C(=O)Nc2cccnc2)CC1)[C@@H](O)c1cc(Cl)cc2cn[nH]c12 [Compound P-0430, (R)-4-(1-(5-chloro-1H-indazol-7-yl)-1-hydroxy-2-methylpropan-2-yl)-N-(pyridin-3-yl)piperidine-1-carboxamide]	0.0001 to 10 µM	0.0001 to 10 µM			0.0001 to 10 µM	0.0001 to 10 µM
CC(C)(C1CCN(C(=O)c2ccc(C(F)(F)F)nc2)CC1)C(O)c1cc(Cl)cc2cn[nH]c12 (stereo not shown) [Compound P-0363, (4-(1-(5-chloro-1H-indazol-7-yl)-1-hydroxy-2-methylpropan-2-yl)piperidin-1-yl)(6-(trifluoromethyl)pyridin-3-yl)methanone]	0.0001 to 10 µM	0.0001 to 10 µM	0.0001 to 10 µM	0.0001 to 10 µM		
COCCCNC(=O)N1CCC(C(C)(C)C(O)c2cc(Cl)cc3cn[nH]c23)CC1 (stereo not shown) [Compound P-0357, 4-(1-(5-chloro-1H-indazol-7-yl)-1-hydroxy-2-methyipropan-2-yl)-N-(3-methoxypropyl) piperidine-1-carboxamide]	0.0001 to 10 µM	0.0001 to 10 µM	0.0001 to 10 µM	0.0001 to 10 µM		
CC1(C(O)c2cc(Br)cc3cncn23)CCCCC1 (stereo not shown) [Compound P-0082, (7-bromoimidazo[1,5-a]pyridin-5-yl)(1-methylcyclohexyl)methanol]	0.0001 to 10 µM	0.0001 to 10 µM	0.0001 to 10 µM	0.0001 to 10 µM		
OC(c1cc(Cl)cc2cn[nH]c12)C12CCC(CC1)CC2 (stereo not shown) [Compound P-0208, bicyclo[2.2.2]octan-1-yl(5-chloro-1H-indazol-7-yl)methanol]	0.0001 to 10 µM	0.0001 to 10 µM	0.0001 to 10 µM	0.0001 to 10 µM		
CC(C)(C1CCN(C(=O)CN2CCS(=O)(=O)CC2)CC1)C(O)c1cc(Cl)cc2cn[nH]c12 (stereo not shown) [Compound P-0487, 1-(4-(1-(5-chloro-1H-indazol-7-yl)-1-hydroxy-2-methylpropan-2-yl)piperidin-1-yl)-2-(1,1-dioxidothiomorpholino) ethan-1-one]	0.0001 to 10 µM	0.0001 to 10 µM			0.0001 to 10 µM	0.0001 to 10 µM
